Like-named read-outs stand apart in the source and are kept apart here. Bridge positions count the residues as written; N and C are the ends. Peptide text beside a SMILES is read from it.
Assays:
[1] = tested on: Acinetobacter baumannii AB5075; settings: for AB5075 MIC FBS: 100% fetal bovine serum; for AB5075 MIC MH: Mueller-Hinton
[2] = tested on: Single-donor human red blood cells; test: Hemolysis assay; format: cell-based; settings: hemolysis at 128 µg/ml, fold change relative to SySA-5
How it was run: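 Peptides at 300 μg/ml (SySA library) or 128 μg/ml (SySA-5 optimization library) were incubated in triplicate with washed single-donor RBCs (1 × 10^9 cells/ml) for 3 h at 37 °C. Supernatant A540 was background-normalized to PBS and expressed relative to 1% Triton X-100 (100% hemolysis).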

Structure (SMILES) | AB5075 MIC FBS ([1]; replicate 1) | AB5075 MIC FBS ([1]; replicate 2) | AB5075 MIC FBS ([1]; replicate 3) | AB5075 MIC MH ([1]; replicate 1) | AB5075 MIC MH ([1]; replicate 2) | AB5075 MIC MH ([1]; replicate 3) | Fold Change Hemolysis [2] | AB5075 MIC FBS ([1]; median of triplicate) | AB5075 MIC MH ([1]; median of triplicate)
CC(C)C[C@@H]1NC(=O)[C@H](CO)NC(=O)[C@H](C(C)C)NC(=O)[C@@H]2CSSC[C@H](NC(=O)[C@H](CC(C)C)NC(=O)[C@H](CCCNC(=N)N)NC(=O)[C@H](C(C)C)NC(=O)[C@H](CCCNC(=N)N)NC(=O)[C@H](CC(C)C)NC(=O)[C@@H](N)CSSC[C@@H](C(=O)O)NC(=O)[C@H](C(C)C)NC(=O)[C@H](CCCNC(=N)N)NC1=O)C(=O)N[C@@H](CCCNC(=N)N)C(=O)N[C@@H](CCCNC(=N)N)C(=O)NCC(=O)N[C@@H](CCCNC(=N)N)C(=O)N2 [SySA-5.13] (H-CLRVRLCRRGRCVSLRVC-OH; disulfide 1-18, 7-12 (inferred); N-terminus and C-terminus assumed) | >128 µg/mL | >128 µg/mL | >128 µg/mL | 32 µg/mL | 8 µg/mL | 16 µg/mL | 3.2 |  | 
CC(C)C[C@@H]1NC(=O)[C@H](CCCNC(=N)N)NC(=O)[C@H](C(C)C)NC(=O)[C@@H]2CSSC[C@H](NC(=O)[C@H](CC(C)C)NC(=O)[C@H](CCCNC(=N)N)NC(=O)[C@H](C(C)C)NC(=O)[C@H](CCCNC(=N)N)NC(=O)[C@H](CC(C)C)NC(=O)[C@@H](N)CSSC[C@@H](C(=O)O)NC(=O)[C@H](C(C)C)NC(=O)[C@H](CCCNC(=N)N)NC1=O)C(=O)N[C@@H](CCCNC(=N)N)C(=O)N[C@@H](CCCNC(=N)N)C(=O)N[C@@H](CCCNC(=N)N)C(=O)N[C@@H](CCCNC(=N)N)C(=O)N2 [SySA-5.14] (H-CLRVRLCRRRRCVRLRVC-OH; disulfide 1-18, 7-12 (inferred); N-terminus and C-terminus assumed) | 64 µg/mL | 64 µg/mL | 64 µg/mL | 8 µg/mL | 4 µg/mL | 4 µg/mL | 5.6 |  | 
CC(C)C[C@@H]1NC(=O)[C@H](CO)NC(=O)[C@H](C(C)C)NC(=O)[C@H](CCCCN)NC(=O)[C@@H]2CSSC[C@H](NC(=O)[C@H](CC(N)=O)NC(=O)[C@H](CC(C)C)NC(=O)[C@H](CCCNC(=N)N)NC(=O)[C@H](C(C)C)NC(=O)[C@H](CCCNC(=N)N)NC(=O)[C@@H](N)CSSC[C@@H](C(=O)O)NC(=O)[C@H](CCC(N)=O)NC1=O)C(=O)N[C@@H](CCCNC(=N)N)C(=O)N[C@@H](CCCNC(=N)N)C(=O)NCC(=O)N[C@@H](CCCNC(=N)N)C(=O)N2 [SySA-5.15] (H-CRVRLNCRRGRCKVSLQC-OH; disulfide 1-18, 7-12 (inferred); N-terminus and C-terminus assumed) | >128 µg/mL | >128 µg/mL | >128 µg/mL | 16 µg/mL | 16 µg/mL | 16 µg/mL | 1.3 |  | 
CC(C)C[C@@H]1NC(=O)[C@H](CO)NC(=O)[C@H](C(C)C)NC(=O)[C@H](CCCCN)NC(=O)[C@@H]2CSSC[C@H](NC(=O)[C@H](CCCNC(=N)N)NC(=O)[C@H](CC(C)C)NC(=O)[C@H](CCCNC(=N)N)NC(=O)[C@H](C(C)C)NC(=O)[C@H](CCCNC(=N)N)NC(=O)[C@@H](N)CSSC[C@@H](C(=O)O)NC(=O)[C@H](CCCNC(=N)N)NC1=O)C(=O)N[C@@H](CCCNC(=N)N)C(=O)N[C@@H](CCCNC(=N)N)C(=O)NCC(=O)N[C@@H](CCCNC(=N)N)C(=O)N2 [SySA-5.16] (H-CRVRLRCRRGRCKVSLRC-OH; disulfide 1-18, 7-12 (inferred); N-terminus and C-terminus assumed) | >128 µg/mL | >128 µg/mL | >128 µg/mL | 32 µg/mL | 64 µg/mL | 32 µg/mL | 1.3 |  | 
CC(C)C[C@@H]1NC(=O)[C@H](CO)NC(=O)[C@H](C(C)C)NC(=O)[C@@H]2CSSC[C@H](NC(=O)[C@H](CC(C)C)NC(=O)[C@H](CCCNC(=N)N)NC(=O)[C@H](C(C)C)NC(=O)[C@H](CCCNC(=N)N)NC(=O)[C@H](CC(C)C)NC(=O)[C@@H](N)CSSC[C@@H](C(=O)O)NC(=O)[C@H](C(C)C)NC(=O)[C@H](CCCNC(=N)N)NC1=O)C(=O)N[C@@H](CCCNC(=N)N)C(=O)N[C@@H](CCCNC(=N)N)C(=O)N[C@@H](CCCNC(=N)N)C(=O)N2 [SySA-5.21] (H-CLRVRLCRRRCVSLRVC-OH; disulfide 1-17, 7-11 (inferred); N-terminus and C-terminus assumed) | 128 µg/mL | >128 µg/mL | >128 µg/mL | 16 µg/mL | 16 µg/mL | 32 µg/mL | 2.4 |  | 
CC(C)C[C@@H]1NC(=O)[C@H](CCCNC(=N)N)NC(=O)[C@H](C(C)C)NC(=O)[C@@H]2CSSC[C@H](NC(=O)[C@H](CC(C)C)NC(=O)[C@H](CCCNC(=N)N)NC(=O)[C@H](C(C)C)NC(=O)[C@H](CCCNC(=N)N)NC(=O)[C@H](CC(C)C)NC(=O)[C@@H](N)CSSC[C@@H](C(=O)O)NC(=O)[C@H](C(C)C)NC(=O)[C@H](CCCNC(=N)N)NC1=O)C(=O)N[C@@H](CCCNC(=N)N)C(=O)N[C@@H](CCCNC(=N)N)C(=O)N[C@@H](CCCNC(=N)N)C(=O)N2 [SySA-5.22] (H-CLRVRLCRRRCVRLRVC-OH; disulfide 1-17, 7-11 (inferred); N-terminus and C-terminus assumed) | 64 µg/mL | 64 µg/mL | 64 µg/mL | 32 µg/mL | 8 µg/mL | 32 µg/mL | 2.1 |  | 
CC(C)C[C@@H]1NC(=O)[C@H](CCCNC(=N)N)NC(=O)[C@H](C(C)C)NC(=O)[C@H](CCCCN)NC(=O)[C@H](CCCNC(=N)N)NC(=O)[C@H](CCCNC(=N)N)NC(=O)[C@H](CCCNC(=N)N)NC(=O)[C@H](CCCNC(=N)N)NC(=O)[C@H](CCCNC(=N)N)NC(=O)[C@H](CC(C)C)NC(=O)[C@H](CCCNC(=N)N)NC(=O)[C@H](C(C)C)NC(=O)[C@H](CCCNC(=N)N)NC(=O)[C@@H](N)CSSC[C@@H](C(=O)O)NC(=O)[C@H](CCCNC(=N)N)NC1=O [SySA-5.25] (H-CRVRLRRRRRKVRLRC-OH; disulfide 1-16) |  |  |  |  |  |  | 1.5 | > 128 µg/mL | 32 µg/mL
